Assay results published in patent US5462926A (Biomeasure, Inc., priority 1993, dated 1995).
Where two headings read alike, the source gives them in different places. Where a SMILES comes first, the peptide text is derived from it. Bridges are numbered along the chain shown (N, C = ends). [ ]: non-standard residue; d: D form. 2Nal = N[C@@H](Cc1ccc2ccccc2c1)C(=O)O; d2Nal = N[C@H](Cc1ccc2ccccc2c1)C(=O)O

Tests used:
somatostatin receptors = target: T1, somatostatin receptors (Rattus norvegicus, UniProt P30680); experiment: Somatostatin membrane receptor assay, 125I-[Tyr11]SS-14, AR 42J cell membranes; assay type: binding; conditions: Cheng method; table prints no unit (b360 gives nM for a Table 4 value); read-out: affinity, 125I-[Tyr11]SS-14, AR 42J Cell Membranes (somatostatin receptors)
T1 construct: endogenous in cells; host or cells: rat AR 42J pancreatic acinar tumor cell membranes

rat NMB receptor = target: T2, rat NMB receptor (Rattus norvegicus, UniProt P24053); experiment: Binding of 125I-[D-Tyr0]NMB to NMB-R transfected BALB 3T3 cells; conditions: for fold decrease in NMB receptor affinity compared with cyclo SS-octa (#1): structure-function comparison from Table 1
T2 construct: a full length NMB-preferring bombesin receptor clone generated from rat esophagus; expressed in transfected cells
T2 sequence (P24053 1-390): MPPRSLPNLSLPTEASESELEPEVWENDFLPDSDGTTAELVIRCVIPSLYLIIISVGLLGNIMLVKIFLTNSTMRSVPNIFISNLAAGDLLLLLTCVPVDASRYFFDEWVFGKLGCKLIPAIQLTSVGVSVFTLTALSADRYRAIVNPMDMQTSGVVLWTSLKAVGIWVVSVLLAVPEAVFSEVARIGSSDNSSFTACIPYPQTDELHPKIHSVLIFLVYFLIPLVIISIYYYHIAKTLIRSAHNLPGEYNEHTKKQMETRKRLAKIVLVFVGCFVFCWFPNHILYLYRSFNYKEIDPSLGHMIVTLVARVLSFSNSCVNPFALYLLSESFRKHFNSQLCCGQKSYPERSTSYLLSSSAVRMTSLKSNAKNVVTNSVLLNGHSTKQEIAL

mu opioid receptors = target: T3, mu opioid receptors (Rattus norvegicus, UniProt P33535); experiment: Mu opioid membrane assay, [3H]DAGO, rat forebrain membranes; assay type: binding; conditions: Cheng method; unit inferred; read-out: affinity, [3H]DAGO, Rat Forebrain membranes (mu opioid receptors)
T3 construct: rat forebrain (TRH, mu and delta opioid membrane assays); from tissue; host or cells: rat forebrain membranes

[1] = target: T4, NMB receptors on C-6 cells (Rattus norvegicus, UniProt P24053); experiment: Binding of 125I-[D-Tyr0]NMB to C-6 glioblastoma cells; conditions: Ki by Cheng method, read-out: Ki 125I-NMB Binding, NMB Receptor, C-6 Cells
T4 construct: endogenous in cells; host or cells: rat glioblastoma C-6 cells
T4 sequence (P24053 1-390): T2 sequence (P24053 1-390)
Outline: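 Disaggregated rat C-6 glioblastoma cells (15×10^6/ml) or NMB-R-transfected cells (2×10^6/ml) were incubated with 75 pM 125I-[D-Tyr0]NMB for 60 min at 22° C in HEPES binding buffer with 0.2% BSA, pH 7.4. Values are saturable binding: total minus binding in the presence of excess unlabelled NMB.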

NMB receptor = target: T5, NMB receptor (Rattus norvegicus, UniProt P24053); experiment: [3H]inositol phosphates in NMB-R transfected cells (alone or NMB-stimulated); assay type: cell-based; design: a full length NMB-preferring bombesin receptor clone generated from rat esophagus; expressed in transfected cells; conditions: NMB-R transfected cells; for IC50 / effect at 10 μM on NMB-stimulated increase in [3H]IP: 3 nM NMB; for [3H]IP, analog Alone (10 μM): analog 10 μM alone, control 13 ± 3; for [3H]IP, analog Plus NMB (3 nM): analog 10 μM plus NMB 3 nM, NMB without analog 186 ± 58
T5 sequence (P24053 1-390): T2 sequence (P24053 1-390)
Outline: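 BALB 3T3 cells stably expressing rat NMB receptor, labelled 48 h at 37 °C with 100 μCi/ml myo-[3H]inositol, preincubated 15 min in buffer with 10 mM LiCl, then exposed 60 min at 37 °C to agonists or to 3 nM NMB plus antagonists. Total [3H]inositol phosphates isolated by anion-exchange chromatography.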

[2] = target: T6, GRP receptors on rat pancreatic acini (Rattus norvegicus, UniProt P52500); experiment: Binding of 125I-[Tyr4]bombesin to pancreatic acini; conditions: read-out: Ki 125I-[Tyr4]Bn Binding, GRP Receptor, Rat Pancreatic Acini; Ki by Cheng method
T6 construct: from tissue; host or cells: dispersed pancreatic acini
Excerpt: Nonsaturable binding was<10% of total binding in all experiments.

[3] = NMB-R transfected BALB 3T3 cells, Ki by Cheng method, read-out: Ki 125I-NMB Binding, NMB Receptor, Transfected Cells
[4] = NMB-R transfected cells, value or range given for a group, read-out: K1, 125I-NMB binding to NMB-R transfected cells (text)
[5] = read-out: IC50 NMB-stimulated [3H]IP, NMB Receptor, Transfected Cells
[6] = read-out: IC50 NMB-stimulated [3H]IP, Transfected Cells (values in μM)

T6 sequence (P52500 whole entry): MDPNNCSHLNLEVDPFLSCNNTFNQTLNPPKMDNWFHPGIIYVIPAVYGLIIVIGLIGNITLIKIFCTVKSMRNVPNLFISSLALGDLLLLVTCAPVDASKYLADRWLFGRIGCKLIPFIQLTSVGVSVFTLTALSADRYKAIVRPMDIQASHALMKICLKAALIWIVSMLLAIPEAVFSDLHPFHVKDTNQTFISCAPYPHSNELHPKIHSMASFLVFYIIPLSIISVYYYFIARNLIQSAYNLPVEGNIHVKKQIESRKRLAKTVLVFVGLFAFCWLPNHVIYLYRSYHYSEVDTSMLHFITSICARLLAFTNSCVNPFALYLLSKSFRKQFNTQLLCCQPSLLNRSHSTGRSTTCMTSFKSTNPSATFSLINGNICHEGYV
T1 sequence (P30680 whole entry): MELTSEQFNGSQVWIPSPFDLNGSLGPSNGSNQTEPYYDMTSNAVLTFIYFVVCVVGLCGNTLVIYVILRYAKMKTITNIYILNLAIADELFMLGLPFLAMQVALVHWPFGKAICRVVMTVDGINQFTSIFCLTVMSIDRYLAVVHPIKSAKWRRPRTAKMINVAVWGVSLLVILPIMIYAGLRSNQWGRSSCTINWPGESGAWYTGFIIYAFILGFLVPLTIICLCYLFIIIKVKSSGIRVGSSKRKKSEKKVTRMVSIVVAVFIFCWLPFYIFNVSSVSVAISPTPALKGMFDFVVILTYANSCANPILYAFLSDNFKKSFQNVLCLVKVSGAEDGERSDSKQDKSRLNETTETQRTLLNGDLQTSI
T3 sequence (P33535 whole entry): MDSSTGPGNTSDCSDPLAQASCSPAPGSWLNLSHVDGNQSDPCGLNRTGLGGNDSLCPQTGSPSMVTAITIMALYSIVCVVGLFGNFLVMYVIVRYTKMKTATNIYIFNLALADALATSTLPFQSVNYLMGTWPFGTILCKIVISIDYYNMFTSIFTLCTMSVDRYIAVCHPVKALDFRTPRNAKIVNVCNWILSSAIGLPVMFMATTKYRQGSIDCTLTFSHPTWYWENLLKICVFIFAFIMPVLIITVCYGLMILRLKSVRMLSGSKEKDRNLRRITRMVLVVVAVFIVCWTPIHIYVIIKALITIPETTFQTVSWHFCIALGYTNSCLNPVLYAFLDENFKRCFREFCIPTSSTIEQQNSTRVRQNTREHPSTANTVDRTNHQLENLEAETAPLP

Compound	Ki (somatostatin receptors)	Ki (rat NMB receptor; [3])	fold by which cyclo SS-octa is more potent than the analog, 125I-NMB binding (rat NMB receptor; NMB-R transfected cells)	Ki (rat NMB receptor; [4])	fold decrease in NMB receptor affinity compared with cyclo SS-octa (#1) (rat NMB receptor)	Ki (mu opioid receptors)	Ki [1]	IC50 (NMB receptor; [5])	[3H]IP, analog Alone (10 μM) (NMB receptor)	[3H]IP, analog Plus NMB (3 nM) (NMB receptor)	Ki [2]	effect at 10 μM on NMB-stimulated increase in [3H]IP (NMB receptor)	IC50 (NMB receptor; [6])
CC(C)[C@@H]1NC(=O)[C@H](CCCCN)NC(=O)[C@@H](Cc2c[nH]c3ccccc23)NC(=O)[C@H](Cc2ccc(O)cc2)NC(=O)[C@@H](NC(=O)[C@H](N)Cc2ccc3ccccc3c2)CSSC[C@@H](C(=O)N[C@H](Cc2ccc3ccccc3c2)C(N)=O)NC1=O [Analog #8, H2 -D-Nal-Cys-Tyr-D-Trp-Lys-Val-Cys-D-Nal-NH2] (H-[d2Nal]CY[dW]KVC[d2Nal]-NH2; disulfide 2-7)	3.9 ± 0.1 nM	1.92 ± 0.201 µM	9 fold	1.4 to 2.3 µM	6 fold	0.28 µM	0.67 ± 0.073 µM	5.19 ± 0.987 µM	10 ± 3 dym × 10^3	67 ± 13 dym × 10^3	> 10 µM		
CC(C)[C@@H]1NC(=O)[C@H](CCCCN)NC(=O)[C@@H](Cc2c[nH]c3ccccc23)NC(=O)[C@H](Cc2ccc(O)cc2)NC(=O)[C@@H](NC(=O)[C@@H](N)Cc2ccc3ccccc3c2)CSSC[C@@H](C(=O)N[C@H](Cc2ccc3ccccc3c2)C(N)=O)NC1=O [Analog #9, H2 -Nal-Cys-Tyr-D-Trp-Lys-Val-Cys-D-Nal-NH2] (H-[2Nal]CY[dW]KVC[d2Nal]-NH2; disulfide 2-7)	2.8 ± 0.7 nM	1.16 ± 0.229 µM				1.16 µM	1.16 ± 0.214 µM	4.41 ± 0.451 µM	8 ± 2 dym × 10^3	28 ± 6 dym × 10^3	> 10 µM		
CC(C)[C@@H]1NC(=O)[C@H](CCCCN)NC(=O)[C@@H](Cc2c[nH]c3ccccc23)NC(=O)[C@H](Cc2ccc(O)cc2)NC(=O)[C@H](NC(=O)[C@H](N)Cc2ccc3ccccc3c2)CSSC[C@@H](C(=O)N[C@@H](Cc2ccc3ccccc3c2)C(N)=O)NC1=O [Analog #10, H2 -D-Nal-D-Cys-Tyr-D-Trp-Lys-Val-Cys-Nal-NH2] (H-[d2Nal][dC]Y[dW]KVC[2Nal]-NH2; disulfide 2-7)	91 ± 23 nM	0.96 ± 0.109 µM			5 fold	1.02 µM	1.15 ± 0.518 µM	3.99 ± 0.781 µM	10 ± 3 dym × 10^3	4 ± 2 dym × 10^3	> 10 µM	completely inhibited	
CC(C)[C@@H]1NC(=O)[C@H](CCCCN)NC(=O)[C@@H](Cc2c[nH]c3ccccc23)NC(=O)[C@H](Cc2ccc(O)cc2)NC(=O)[C@@H](NC(=O)[C@H](N)Cc2ccc3ccccc3c2)CSSC[C@H](C(=O)N[C@@H](Cc2ccc3ccccc3c2)C(N)=O)NC1=O [Analog #11, H2 -D-Nal-Cys-Tyr-D-Trp-Lys-Val-D-Cys-Nal-NH2] (H-[d2Nal]CY[dW]KV[dC][2Nal]-NH2; disulfide 2-7)	48 ± 3 nM	1.08 ± 0.199 µM			5 fold	> 10 µM	1.74 ± 0.345 µM	1.43 ± 0.119 µM	10 ± 1 dym × 10^3	7 ± 4 dym × 10^3	> 10 µM	completely inhibited	1.2 to 1.8 µM
CC(C)[C@@H]1NC(=O)[C@H](CCCCN)NC(=O)[C@@H](Cc2c[nH]c3ccccc23)NC(=O)[C@H](Cc2ccc(O)cc2)NC(=O)[C@@H](NC(=O)[C@H](N)Cc2c[nH]c3ccccc23)CSSC[C@@H](C(=O)N[C@@H](Cc2ccc3ccccc3c2)C(N)=O)NC1=O [Analog #12, H2 -D-Trp-Cys-Tyr-D-Trp-Lys-Val-Cys-Nal-NH2] (H-[dW]CY[dW]KVC[2Nal]-NH2; disulfide 2-7)	3.1 ± 1.6 nM	1.41 ± 0.127 µM	9 fold	1.4 to 2.3 µM	4 to 7 fold	> 10 µM	1.78 ± 0.109 µM	4.69 ± 0.927 µM	9 ± 2 dym × 10^3	43 ± 2 dym × 10^3	> 10 µM		
NCCCC[C@@H]1NC(=O)[C@@H](Cc2c[nH]c3ccccc23)NC(=O)[C@H](Cc2ccc(O)cc2)NC(=O)[C@@H](NC(=O)[C@H](N)Cc2ccc3ccccc3c2)CSSC[C@@H](C(=O)N[C@@H](Cc2ccc3ccccc3c2)C(N)=O)NC(=O)[C@H](Cc2ccccc2)NC1=O [Analog #13, H2 -D-Nal-Cys-Tyr-D-Trp-Lys-Phe-Cys-Nal-NH2] (H-[d2Nal]CY[dW]KFC[2Nal]-NH2; disulfide 2-7)	194 ± 27 nM	0.397 ± 0.072 µM	2 fold		2 to 3 fold	1.64 µM	0.213 ± 0.013 µM	1.17 ± 0.114 µM	10 ± 1 dym × 10^3	9 ± 4 dym × 10^3	> 10 µM	completely inhibited	1.2 to 1.8 µM
CC(C)[C@@H]1NC(=O)[C@H](Cc2c[nH]cn2)NC(=O)[C@@H](Cc2c[nH]c3ccccc23)NC(=O)[C@H](Cc2ccc(O)cc2)NC(=O)[C@@H](NC(=O)[C@H](N)Cc2ccc3ccccc3c2)CSSC[C@@H](C(=O)N[C@@H](Cc2ccc3ccccc3c2)C(N)=O)NC1=O [Analog #14] (H-[d2Nal]CY[dW]HVC[2Nal]-NH2; disulfide 2-7; N-terminus assumed)	1870 ± 30 nM	9.86 ± 1.29 µM	45 fold		50 fold	0.5 µM	4.94 ± 0.93 µM	11.9 ± 1.83 µM	8 ± 1 dym × 10^3	97 ± 7 dym × 10^3	> 10 µM		
